# Assay results taken from patent US10654875B2, “Cell-penetrating, guanidinium-rich oligophosphotriesters for drug and probe delivery” (The Board of Trustees of the Leland Stanford Junior …, priority 2015, dated 2020).
# Legend:
# HeLa cells [1] = conditions: without attachment to a transporter, previously shown; cited from earlier work
# HeLa cells [2] = assay: Uptake of maleimide conjugates by flow cytometry; conditions: 10 μM, 10 minutes
# Experimental: (FIG. 4A) Delivery of FL-maleimide to HeLa cells by click-coupling to thiol-initiated HexPhos oligomer 8. Maleimide control and HexPhos8 conjugate (11 and 12 respectively) were formed by reaction of 10 with the corresponding thiol for 2 hours at room temperature in PBS. The resulting compounds were exposed to HeLa cells at 10 μM final concentration for 10 minutes before determining uptake by flow cytometry. Data shown is the average fluorescence of 10,000 events measured.
# To explore this strategy, deprotected thiol-initiated HexPhos 8-mer (7) was mixed with fluorescein (FL) maleimide (10) in PBS at room temperature for 2 hours to effect a Michael addition and uptake of the resulting conjugate was determined by flow cytometry (FIG. 4, panel A).
# HeLa cells were plated at 40,000 cells/well in 24-well plates and incubated at 37° C. for 12-24 hours to adhere. Before treatment, a 1:1 molar ratio of thiol-initiated HexPhos oligomer (7) and FL-maleimide (10, Molecular Probes) was incubated for 2 hours in PBS (pH 7.4) at a final concentration of 4 mM. […] After removal of the supernatant, cells were resuspended in 125 μL of PBS and transferred to FACS tubes and read on a flow cytometry analyzer for the presence of fluorescein. Results were analyzed by FlowJo software. Data presented is the mean fluorescence from 10,000 cells analyzed.
# [3] = tested on: OVCA-429 (wild-type) ovarian cancer cells; assay: MTT toxicity assay of PTX and PTX-HexPhos conjugate; type: cell-based, human; conditions: wash, 72 hours drug-free media, concentrations based on paclitaxel content
# Experimental: OVCA-429 (wild-type) and OVCA-429T (resistant) cells were treated with free PTX (14) or the HexPhos conjugate 16 for 20 minutes in PBS, then washed and incubated for 3 days. After this time, cellular viability was assessed using a standard MTT assay to generate an EC50 value (the concentration at which overall cellular viability was half that of untreated cells) for each condition. […] The efficacy of these compounds can be expressed in terms of a “resistance factor” for free PTX and the HexPhos-paclitaxel conjugate 16, defined as the EC50 in resistant cells/the EC50 in wild-type cells.
# MTT Toxicity Assays. The cytotoxicity of HexPhos oligomers, PTX alone, and PTX-HexPhos conjugate (16) were assessed by a standard MTT percent viability assay. Adherent cells (HeLa for oligomers alone, OVCA-429 or OVCA-429T for PTX and PTX-HexPhos conjugate) were plated at 5,000 cells/well in 96 well plates and allowed to incubate at 37° C. for 12-24 hours to adhere. Cells were washed with serum-free DMEM prior to treatment. In a second 96-well plate, compounds were serially diluted over a range of 200 μM to 400 nM, with two-fold dilutions between each well. […] Read absorbance on a plate reader at 570 and 690 nm. Subtracted absorbance at 570 from absorbance at 690 and normalized to wells with no cells as a minimum, and untreated cells as a maximum to calculate % viability.
# [4] = tested on: OVCA-429T (resistant) ovarian cancer cells; assay: as above; type: cell-based, human; conditions: for Resistance Factor: ratio of EC50 in OVCA-429T and OVCA-429 cells
# Experimental: The in vitro efficacy of PTX-HexPhos conjugate 16 was compared to free PTX in both wild-type and PTX-resistant ovarian cancer cells engineered to have high levels of Pgp up-regulation. OVCA-429 (wild-type) and OVCA-429T (resistant) cells were treated with free PTX (14) or the HexPhos conjugate 16 for 20 minutes in PBS, then washed and incubated for 3 days. After this time, cellular viability was assessed using a standard MTT assay to generate an EC50 value (the concentration at which overall cellular viability was half that of untreated cells) for each condition. […] The efficacy of these compounds can be expressed in terms of a “resistance factor” for free PTX and the HexPhos-paclitaxel conjugate 16, defined as the EC50 in resistant cells/the EC50 in wild-type cells.
# MTT Toxicity Assays. The cytotoxicity of HexPhos oligomers, PTX alone, and PTX-HexPhos conjugate (16) were assessed by a standard MTT percent viability assay. Adherent cells (HeLa for oligomers alone, OVCA-429 or OVCA-429T for PTX and PTX-HexPhos conjugate) were plated at 5,000 cells/well in 96 well plates and allowed to incubate at 37° C. for 12-24 hours to adhere. Cells were washed with serum-free DMEM prior to treatment. In a second 96-well plate, compounds were serially diluted over a range of 200 μM to 400 nM, with two-fold dilutions between each well. For PTX conditions, a range of 20 μM to 40 nM was used. Each compound was tested in triplicate. […] Second plate was transferred to the plate containing cells, and incubated at 37° C. for 10 minutes, followed washing and replacement with 150 μL fresh serum-containing DMEM. Cells were incubated for an additional 72 hours at 37° C., after which time cellular viability was assayed by adding μ10 L of 3-(4,5-dimethylthiazol-2-yl)-2,5-diphenyltetrazolium bromide (MTT) solution (15 mg in 3 mL DMEM). Incubated for 2 hours at 37° C. […] Read absorbance on a plate reader at 570 and 690 nm. Subtracted absorbance at 570 from absorbance at 690 and normalized to wells with no cells as a minimum, and untreated cells as a maximum to calculate % viability.
smiles,measurement,setting,value
"CN(C)c1cccc2c(S(=O)(=O)NCCO)cccc12 [Compound 4, 5-(dimethylamino)-N-(2-hydroxyethyl)naphthalene-1-sulfonamide]",cell entry of probe alone,HeLa cells [1],not to enter cells
"O=C1OC2(c3ccc(O)cc3Oc3cc(O)ccc32)c2ccc(N3C(=O)C=CC3=O)cc21 [Compound 10, fluorescein (FL) maleimide]",FL fluorescence of cells treated with controls,HeLa cells [2],little FL fluorescence
"CC(=O)O[C@H]1C(=O)[C@@]2(C)[C@H]([C@H](OC(=O)c3ccccc3)[C@]3(O)C[C@H](OC(=O)[C@H](O)[C@@H](NC(=O)c4ccccc4)c4ccccc4)C(C)=C1C3(C)C)[C@]1(OC(C)=O)CO[C@@H]1C[C@@H]2O [PTX Alone (14), paclitaxel]",EC50,"[3]; Homo sapiens, OVCA429, treated 20 minutes",0.051 ± 0.037 µM
same,EC50 (μM) OVCA-429 (Wild-type),[3]; treated 20 minutes,highly cytotoxic
same,EC50,"[4]; Homo sapiens, treated 20 minutes, wash, 72 hours drug-free media, MTT, assay limit 20 μM",> 20 µM
same,Resistance Factor,[4],>400
same,Resistance Factor,[4]; listed as 14,≥ 400
